Where two headings read alike, the source gives them in different places.
Experiments:
[1] = test system: FOXC2-HMLER cells; assay: Confocal imaging of thymidine synced FOXC2-HMLER cells at metaphase; format: cell-based, human
Source text: Because Compound 1 induces a hyper-phosphorylated VIM phenotype, we sought to determine if Compound 1's engagement of VIM might interfere at an alternative stage of mitosis. We therefore performed time course confocal imaging studies of Compound 1 treated FOXC2-HMLER cells after their release from thymidine blocking-based cell cycle synchronization.
Compound 1 treatment also disrupted the ability of β-tubulin to faithfully form the fine spindle microtubules of the mitotic spindle, instead resulting in a compressed phenotype with radiating projections connecting unaligned chromosomes. To assess the uniqueness of this phenotype, we evaluated the metaphase phenotypes of other chemical inhibitors which have shown to alter mitotic progression. These included inhibitors of centromere-associated protein E (CENP-E, also called kinesin-7, GSK92395), kinesin spindle protein (KSP, also called Eg5, Ispinesib), polo like kinases (PLK1/2/3, BI2536), and aurora kinases (AURKA/B/C, VX-680).

[2] = molecular target: T1, recombinant full length VIM (Homo sapiens, UniProt P08670); assay: In vitro photo-affinity labeling of recombinant proteins with 1-PAP; format: binding
T1 construct: 1-PAP labels recombinant full length VIM in vitro
T1 sequence (P08670 whole entry): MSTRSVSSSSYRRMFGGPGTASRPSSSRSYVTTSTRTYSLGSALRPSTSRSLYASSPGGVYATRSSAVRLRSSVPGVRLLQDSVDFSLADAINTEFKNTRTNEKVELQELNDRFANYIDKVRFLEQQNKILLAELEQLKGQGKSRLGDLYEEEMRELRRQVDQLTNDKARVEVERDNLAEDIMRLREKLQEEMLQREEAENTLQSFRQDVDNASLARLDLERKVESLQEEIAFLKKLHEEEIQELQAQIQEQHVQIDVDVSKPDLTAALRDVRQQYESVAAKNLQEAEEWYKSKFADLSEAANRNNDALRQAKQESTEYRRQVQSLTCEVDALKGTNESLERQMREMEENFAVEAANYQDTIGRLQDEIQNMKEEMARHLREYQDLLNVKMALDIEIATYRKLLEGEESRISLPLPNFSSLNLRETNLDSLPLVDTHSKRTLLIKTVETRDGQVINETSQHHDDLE
Procedure: To identify the relevant cellular target of Compound 1, we incubated live FOXC2-HMLER cells with 2.5 μM 1-PAP, as prepared in Example 5, for 15 minutes and subjected these cells to UV irradiation. A sample containing both 1-PAP and a 20-fold molar excess of free Compound 1 was used to distinguish specific labeling events.
VIM consists of a long rod domain, which forms a coiled coil in the presence of other VIM molecules, as well as head and tail domains. To identify which portion of the protein was the relevant site of 1-PAP labeling, we expressed these domains as GST fusion proteins. […] VIM is one of four type III intermediate filament proteins, whose members additionally include Peripherin, glial fibrillary acidic protein (GFAP), and Desmin, which share 59%, 61%, and 62% sequence similarity to VIM respectively (SIM alignment, ExPASy) (E. Fuchs et al., Annu. Rev. Biochem. 63 (1994) 345-382).

[3] = test system: control HMLER cells; assay: Cell Titer Glo viability of control HMLER cells; format: cell-based; conditions: Homo sapiens; 72-hour incubation; read-out: control HMLER IC50
Source text: An engineered cancer cell line HMLER as an isogenic screening system was employed to identify compounds that are selectively toxic to the FOXC2 positive genotype. HMLER cells are derived from mammary epithelial cells (HMECs), but are virally transformed with the […] oncogene (G12V), human telomerase reverse transcriptase (hTERT), and SV40 large-T antigen (B. Elenbaas, B. et al. Genes Dev. 15 (2001) 50-65). Expression of these genes endows HMLER cells with functional immortality and tumorigenic potential at high seeding number (>10^6 cells; Hollier (2013)). […]
For high throughput screening, FOXC2-HMLER and HMLER cells were plated at 10^3 cells per well in white 384-well plates in 50 μL of MEGM medium (Lonza). […] After 72-hour incubation, 30 μL of a Cell Titer Glo solution (diluted 1:6 in water, Promega) was dispensed into each well and luminance values were recorded using an Envision plate reader. […]
More specifically, in the high throughput screening assay above, each cell line was plated at 1,000 cells per well in 384-well plates, treated for 72 hours with 2 μM of test compound, and the viability of each line was determined in parallel by Cell Titer Glo (Promega) luminance measurements. […]

[4] = test system: FOXC2-expressing HMLER cells; assay: Cell Titer Glo viability of FOXC2-HMLER cells (high throughput screen and 10-point response); format: cell-based; conditions: Homo sapiens
In short: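 FOXC2-HMLER cells (HMLER run in parallel) seeded at 1,000 cells/well in MEGM, attached 1 h, then given compound in DMSO (2 μM in the screen). After 72 h, viability was read by Cell Titer Glo luminescence.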

[5] = test system: FOXC2-HMLER cells; assay: Multinucleation of FOXC2-HMLER cells; format: cell-based, human; conditions: 250-500 nM, 24 hours
[6] = molecular target: T2, VIM (Homo sapiens, UniProt P08670); assay: Western blotting / immunofluorescence of VIM protein status in FOXC2-HMLER cells; format: cell-based; conditions: FOXC2-HMLER cells, Western blotting
T2 construct: endogenous in cells; host or cells: FOXC2-HMLER
T2 sequence (P08670 whole entry): as above
Procedure: Western blotting was performed essentially as described previously (M. J. Bollong et al. ACS Chem. Biol. 10 (2015) 2193-2198). Cells were collected by brief trypsinization and centrifugation at 500 g for 5 minutes. Cells were lysed by the addition of RIPA buffer with protease and phosphatase inhibitors (Roche). Lysates were incubated on ice for 30 minutes before eliminating insoluble protein content by centrifugation at 12,000 g for 5 minutes at 4° C. Protein concentrations were determined from absorbance values obtained by a Nanodrop instrument. Equal amounts of protein were then mixed with 2× loading buffer (100 mM TRIS-HCl, 1% SDS, 10% glycerol, 0.1% bromophenol blue 10%-mercaptoethanol) and exposed to 95° C. for 5 minutes. Protein was separated by SDS-PAGE using 4-12% Bis-Tris Gels (Invitrogen) and then transferred to PVDF membranes (Invitrogen) using semi-dry transfer. Membranes were blocked for 1 hour at room temperature in 5% non-fat dry milk in TBST (Tris buffered saline with 0.1% Tween 20). Membranes were incubated overnight with primary antibodies in blocking buffer overnight at the dilutions ranging from 1:500 to 1:2000. After 3 washes with TBST, membranes were then exposed to HRP-conjugated secondary antibodies (1:5000 in blocking buffer, Sigma) for one hour followed by one hour of additional washing with TBST. Relative protein content was visualized using film and SuperSignal West Dura Substrate. For VIM degradation blots, 20-60 μg of protein content was loaded per gel lane and the anti-VIM antibody V9 (ab8069) was used to blot for VIM protein content. Phospho-protein blots were performed as above with the exception that primary antibodies were incubated in 5% bovine serum albumin in TBST instead of milk.
We performed Western blotting analysis of FOXC2-HMLER cells treated for 24 hours with Compound 1 with commercially available antibodies targeting specific phosphorylated VIM species (P-S39, P-S56, P-S83).
In contrast, only a small fraction of cells undergoing mitosis stained positive for P-S56-VIM in DMSO-treated controls, consistent with previous reports identifying phosphorylation at S56 as a modification catalyzed by cyclin dependent kinase 1 (CDK1; FIG. 6) (T. Yamaguchi, T. et al., J. Cell Biol. 171 (2005) 431-436.

[7] = molecular target: T2, VIM; assay: Immunofluorescent analysis of VIM filamentous architecture in HUVECs; format: cell-based; conditions: one-hour treatment
[8] = scored relative to parent compound 2, 72 hours, read-out: Activity Score, inhibition of FOXC2-expressing HMLER cells by Formula II compounds

SMILES: CC(C)Oc1ccc(C(=O)N[C@H](CNC(=O)CN(C)C)Cc2ccc(-c3cn4cccc([C@H](C)O)c4n3)cc2)cc1Cl [GSK92395]
- VIM filamentous structure at metaphase [1]: did not induce VIM filamentous collapse
- chromosome alignment to the metaphase plate [1]: unaligned chromosome phenotype

SMILES: CC1(CC[C@H](NC(=O)CCOCCOCCNC(=O)CCCC[C@@H]2SC[C@@H]3NC(=O)N[C@@H]32)C(=O)NCCOCCOCCOc2cc(Cl)cc(N3CCN(c4cnnc5c(Cl)cccc45)CC3)c2)N=N1 [Compound 1-PAP, N—((S)-1-(3-chloro-5-(4-(8-chlorocinnolin-4-yl)piperazin-1-yl)phenoxy)-11-(2-(3-methyl-3H-diazirin-3-yl)ethyl)-10,13-dioxo-3,6,16,19-tetraoxa-9,12-diazahenicosan-21-yl)-5-((3aS,4S,6aR)-2-oxohexahydro-1H-thieno[3,4-d]imidazol-4-yl)pentanamide]
- labeling of type III intermediate filament proteins ([2]; VIM vs Peripherin, GFAP, Desmin recombinant preparations): labeled VIM exclusively
- labeling of VIM domains expressed as GST fusion proteins ([2]; head, rod and tail domains): binds specifically and potently to the rod domain of VIM

SMILES: COc1cccc2c1C(=O)c1c(O)c3c(c(O)c1C2=O)C[C@@](O)(C(=O)CO)C[C@@H]3O[C@H]1C[C@H](N)[C@H](O)[C@H](C)O1 [doxorubicin, reference compound]
- IC50 [3]: 0.267 µM
- IC50 ([4]; 72-hour incubation, read-out: FOXC2-HMLER IC50): 0.447 µM

SMILES: COc1ccc(N2CCN(C(=O)c3ccc(-n4nnc5cccnc54)cc3)CC2)cc1 [Compound 3AP]
- IC50 ([4]; scored relative to parent compound 3, 72 hours, read-out: Activity Score, inhibition of FOXC2-expressing HMLER cells by Formula III compounds): > 20 µM

SMILES: CC1CN(c2cnnc3c(Cl)cccc23)CCN1c1cc(Cl)cc(Cl)c1 (stereo not drawn) [Compound 1SRM]
- IC50 ([4]; scored relative to parent compound 1, 72 hours, read-out: Activity Score, inhibition of FOXC2-expressing HMLER cells by Formula I compounds): < 1 µM

SMILES: CCc1cccc(NC(=O)Cn2c(=O)c(CNc3ccc(C)cc3)cc3ccc(OC)cc32)c1 [Compound 2FL]
- IC50 [4, 8]: > 20 µM

SMILES: CCc1ccc(NC(=O)Cn2c(=O)c(CNc3ccc(C)cc3)cc3cc(OC)c(OC)cc32)cc1 [Compound 2FB]
- IC50 [4, 8]: > 20 µM

SMILES: CCc1ccc(NCc2cc3ccc(OC)cc3n(CC(=O)Nc3ccccc3OC)c2=O)cc1 [Compound 2DV]
- IC50 [4, 8]: > 20 µM

SMILES: O=C(Cn1c(=O)c(CNc2ccccc2)cc2cc3c(cc21)OCCO3)Nc1ccc2c(c1)OCCO2 [Compound 2FG]
- IC50 [4, 8]: > 20 µM

SMILES: COc1ccc2cc(CNc3ccc(C)cc3)c(=O)n(CC(=O)Nc3ccc(C)cc3Cl)c2c1 [Compound 2M]
- IC50 [4, 8]: 1 to 20 µM

SMILES: CC1=C(CO)C(=O)O[C@@H]([C@@H](C)[C@H]2CC[C@H]3[C@@H]4C[C@H]5O[C@]56[C@@H](O)C=CC(=O)[C@]6(C)[C@H]4CC[C@]23C)C1 [WIF-A, Withaferin A, reference compound]
- multinucleated FOXC2-HMLER cells [5]: significant increase
- lower molecular weight VIM degradation products [6]: dose-dependent accumulation
- chromosome alignment to the metaphase plate [1]: unaligned chromosomes during metaphase
- VIM filamentous architecture in HUVECs [7]: promoted the destruction of fine VIM-containing filamentous structures

SMILES: COc1ccc(NCc2cc3ccc(C)cc3n(CC(=O)Nc3ccc(C)c(C)c3)c2=O)cc1OC [Compound 2HO]
- IC50 [4, 8]: > 20 µM
